Experimental findings from patent US20250276964A1 (Novartis AG, priority 2021, published 2025) are described below.

In this experiment the target is T1, WIZ (Homo sapiens, UniProt O95785+Q96SW2).
T1 construct: expressed in transfected cells
Kind of experiment: Quantification of WIZ protein levels in HiBit tag fusion protein assay (WIZ HiBit assay in 293T cells). The experiment is classed as cell-based. The following applies: for Dmax at 25 µM / remaining activity at 25 µM: HEK-293T; for Dmax at 25 µM: 100 minus Amax at 25 uM, read-out: % degradation of WIZ (100-Amax); for remaining activity at 25 µM: DMSO-normalized, curve-fitted percentage of WIZ-HiBit remaining at 25 uM, read-out: WIZ Amax; for DC50: WIZ HiBit assay in 293T cells, 10-point, 5-fold dilution, highest concentration 25 μM, about 18 hours, read-out: WIZ AC50. The method in brief: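 293T cells stably carrying single-copy HiBit-WIZ (HSVTK promoter) treated ~18 h at 37 °C with 10-point, 5-fold dilutions, top 25 μM. Lytic HiBit luminescence read; Amax is DMSO-normalised, curve-fitted % WIZ-HiBit remaining at 25 uM.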
(In general: The HiBiT peptide binds its large partner to form an active luciferase.)

T1 sequence (O95785 whole entry): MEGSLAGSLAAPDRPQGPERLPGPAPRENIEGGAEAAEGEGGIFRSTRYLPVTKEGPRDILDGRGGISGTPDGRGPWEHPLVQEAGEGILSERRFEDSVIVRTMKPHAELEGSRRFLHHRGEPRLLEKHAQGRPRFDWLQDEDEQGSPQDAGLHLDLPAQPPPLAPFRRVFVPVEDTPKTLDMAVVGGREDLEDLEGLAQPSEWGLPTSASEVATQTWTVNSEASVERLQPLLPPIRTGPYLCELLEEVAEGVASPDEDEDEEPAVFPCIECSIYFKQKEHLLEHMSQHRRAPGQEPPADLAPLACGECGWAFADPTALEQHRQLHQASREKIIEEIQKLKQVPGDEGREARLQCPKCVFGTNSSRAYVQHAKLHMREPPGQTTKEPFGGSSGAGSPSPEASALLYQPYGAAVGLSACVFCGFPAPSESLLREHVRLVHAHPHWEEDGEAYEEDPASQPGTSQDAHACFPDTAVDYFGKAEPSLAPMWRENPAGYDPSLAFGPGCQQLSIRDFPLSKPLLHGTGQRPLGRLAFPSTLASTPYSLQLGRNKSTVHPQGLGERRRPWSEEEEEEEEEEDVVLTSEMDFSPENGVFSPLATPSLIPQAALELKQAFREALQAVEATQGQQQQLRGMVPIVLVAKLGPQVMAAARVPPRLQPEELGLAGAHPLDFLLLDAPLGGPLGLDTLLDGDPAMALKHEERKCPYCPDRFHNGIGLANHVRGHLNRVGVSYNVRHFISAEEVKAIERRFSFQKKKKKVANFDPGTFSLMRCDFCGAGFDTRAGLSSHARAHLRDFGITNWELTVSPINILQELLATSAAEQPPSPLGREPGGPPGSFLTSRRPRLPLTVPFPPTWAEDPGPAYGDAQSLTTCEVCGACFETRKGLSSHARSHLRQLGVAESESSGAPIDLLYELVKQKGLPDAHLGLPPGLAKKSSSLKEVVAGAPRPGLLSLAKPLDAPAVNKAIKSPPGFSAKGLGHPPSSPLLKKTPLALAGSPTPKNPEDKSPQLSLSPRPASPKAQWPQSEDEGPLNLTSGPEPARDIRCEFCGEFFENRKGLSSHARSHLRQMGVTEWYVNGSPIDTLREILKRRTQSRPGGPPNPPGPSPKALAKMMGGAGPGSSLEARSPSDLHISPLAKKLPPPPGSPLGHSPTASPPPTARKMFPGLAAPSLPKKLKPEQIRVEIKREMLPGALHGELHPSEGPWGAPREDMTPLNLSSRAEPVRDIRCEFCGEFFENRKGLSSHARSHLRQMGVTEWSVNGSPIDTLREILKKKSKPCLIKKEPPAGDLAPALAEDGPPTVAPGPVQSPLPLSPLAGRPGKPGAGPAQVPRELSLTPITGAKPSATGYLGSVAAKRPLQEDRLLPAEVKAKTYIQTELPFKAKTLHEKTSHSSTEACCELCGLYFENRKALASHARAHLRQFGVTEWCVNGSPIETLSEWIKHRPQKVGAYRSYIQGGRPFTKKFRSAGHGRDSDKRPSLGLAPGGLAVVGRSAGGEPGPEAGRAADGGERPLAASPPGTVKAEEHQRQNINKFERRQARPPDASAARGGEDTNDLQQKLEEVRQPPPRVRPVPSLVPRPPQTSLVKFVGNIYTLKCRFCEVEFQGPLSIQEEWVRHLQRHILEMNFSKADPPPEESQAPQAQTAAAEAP
T1 sequence (Q96SW2 whole entry): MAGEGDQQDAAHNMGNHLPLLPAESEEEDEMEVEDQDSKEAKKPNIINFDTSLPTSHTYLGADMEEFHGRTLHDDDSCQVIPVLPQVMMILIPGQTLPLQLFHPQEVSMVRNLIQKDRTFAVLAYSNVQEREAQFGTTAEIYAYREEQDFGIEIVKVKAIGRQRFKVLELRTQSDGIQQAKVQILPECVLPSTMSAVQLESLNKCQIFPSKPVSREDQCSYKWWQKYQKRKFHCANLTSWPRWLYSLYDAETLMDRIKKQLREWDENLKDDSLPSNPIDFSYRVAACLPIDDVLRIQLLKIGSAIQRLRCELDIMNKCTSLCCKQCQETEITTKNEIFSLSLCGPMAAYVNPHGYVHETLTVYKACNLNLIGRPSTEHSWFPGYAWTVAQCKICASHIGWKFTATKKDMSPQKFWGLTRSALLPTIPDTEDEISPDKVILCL
T1 sequence (Q16531 whole entry partner): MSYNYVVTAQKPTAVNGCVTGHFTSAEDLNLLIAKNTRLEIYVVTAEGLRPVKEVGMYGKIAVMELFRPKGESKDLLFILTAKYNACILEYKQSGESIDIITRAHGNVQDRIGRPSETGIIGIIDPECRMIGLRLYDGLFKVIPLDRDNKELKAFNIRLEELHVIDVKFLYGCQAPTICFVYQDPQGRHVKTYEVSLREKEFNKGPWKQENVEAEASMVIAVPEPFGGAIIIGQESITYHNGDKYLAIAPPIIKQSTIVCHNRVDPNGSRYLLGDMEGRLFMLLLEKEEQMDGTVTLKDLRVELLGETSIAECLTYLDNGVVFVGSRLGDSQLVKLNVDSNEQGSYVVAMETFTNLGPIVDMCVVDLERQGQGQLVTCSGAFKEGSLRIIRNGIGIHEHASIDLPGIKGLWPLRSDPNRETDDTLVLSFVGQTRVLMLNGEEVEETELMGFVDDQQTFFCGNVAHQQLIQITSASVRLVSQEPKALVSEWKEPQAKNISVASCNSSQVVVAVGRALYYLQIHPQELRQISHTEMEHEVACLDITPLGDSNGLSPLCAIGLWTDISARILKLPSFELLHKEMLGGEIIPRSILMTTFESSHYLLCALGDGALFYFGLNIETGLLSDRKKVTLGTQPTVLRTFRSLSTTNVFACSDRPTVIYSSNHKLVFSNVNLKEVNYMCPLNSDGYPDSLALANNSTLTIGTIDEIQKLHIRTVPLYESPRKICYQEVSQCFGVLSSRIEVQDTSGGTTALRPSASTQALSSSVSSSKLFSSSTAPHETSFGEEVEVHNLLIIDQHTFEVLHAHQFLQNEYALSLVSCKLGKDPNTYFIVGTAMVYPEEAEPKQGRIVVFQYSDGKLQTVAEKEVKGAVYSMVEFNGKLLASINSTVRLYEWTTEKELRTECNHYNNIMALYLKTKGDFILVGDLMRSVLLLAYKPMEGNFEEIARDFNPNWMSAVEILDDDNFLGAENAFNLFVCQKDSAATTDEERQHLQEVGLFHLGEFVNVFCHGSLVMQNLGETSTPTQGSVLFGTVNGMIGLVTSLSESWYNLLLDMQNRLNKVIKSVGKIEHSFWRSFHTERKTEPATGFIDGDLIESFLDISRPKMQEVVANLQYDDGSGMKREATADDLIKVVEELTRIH

On to `CC[C@@H]1CN(CC(C)C)CCN1Cc1ccc2onc(N3CCC(=O)NC3=O)c2c1` [Example 88, (R)-1-(5-((2-ethyl-4-isobutylpiperazin-1-yl)methyl)benzo[d]isoxazol-3-yl)dihydropyrimidine-2,4(1H,3H)-dione], for which the Dmax at 25 µM was determined as 85%, the remaining activity at 25 µM was determined as 15% and the DC50 amounted to 8 nM.

For the compound `CC(C)[C@@H]1CN(C)CCN1Cc1ccc2onc(N3CCC(=O)NC3=O)c2c1` [Example 89, (R)-1-(5-((2-isopropyl-4-methylpiperazin-1-yl)methyl)benzo[d]isoxazol-3-yl)dihydropyrimidine-2,4(1H,3H)-dione], the Dmax at 25 µM came to 83%, the remaining activity at 25 µM was found to be 17% and the DC50 was found to be 28 nM.

For `CC(C)CN1CCN(Cc2ccc3onc(N4CCC(=O)NC4=O)c3c2)[C@H](C(C)C)C1` [Example 90, (R)-1-(5-((4-isobutyl-2-isopropylpiperazin-1-yl)methyl)benzo[d]isoxazol-3-yl)dihydropyrimidine-2,4(1H,3H)-dione], the Dmax at 25 µM worked out at 85%, the remaining activity at 25 µM worked out at 15% and the DC50 worked out at 7 nM.

For `CC(C)(C)OC(=O)N1CCN(Cc2ccc3onc(N4CCC(=O)NC4=O)c3c2)CC1(C)C` [Example 91, tert-butyl 4-((3-(2,4-dioxotetrahydropyrimidin-1(2H)-yl)benzo[d]isoxazol-5-yl)methyl)-2,2-dimethylpiperazine-1-carboxylate], the Dmax at 25 µM is 81%, the remaining activity at 25 µM was 19% and the DC50 is 298 nM.

As for `CN1CCN(Cc2ccc3onc(N4CCC(=O)NC4=O)c3c2)CC1(C)C` [Example 92, 1-(5-((3,3,4-trimethylpiperazin-1-yl)methyl)benzo[d]isoxazol-3-yl)dihydropyrimidine-2,4(1H,3H)-dione], the Dmax at 25 µM stood at 82%, the remaining activity at 25 µM was 18% and the DC50 was 4 nM.

Consider `CC(C)(C)OC(=O)N1C[C@@H]2C[C@H]1CN2Cc1ccc2onc(N3CCC(=O)NC3=O)c2c1` [Example 93, tert-butyl (1S,4S)-5-((3-(2,4-dioxotetrahydropyrimidin-1(2H)-yl)benzo[d]isoxazol-5-yl)methyl)-2,5-diazabicyclo[2.2.1]heptane-2-carboxylate], for which the Dmax at 25 µM was 61%, the remaining activity at 25 µM stood at 39% and the DC50 amounted to 2180 nM.

With `CN1C[C@@H]2C[C@H]1CN2Cc1ccc2onc(N3CCC(=O)NC3=O)c2c1` [Example 94], the Dmax at 25 µM was found to be 76%, the remaining activity at 25 µM was determined as 24% and the DC50 stood at 364 nM.

As to `O=C1CCN(c2noc3ccc(CN4C[C@@H]5C[C@H]4CN5CC4CCOCC4)cc23)C(=O)N1` [Example 95, 1-(5-(((1S,4S)-5-((tetrahydro-2H-pyran-4-yl)methyl)-2,5-diazabicyclo[2.2.1]heptan-2-yl)methyl)benzo[d]isoxazol-3-yl)dihydropyrimidine-2,4(1H,3H)-dione], the Dmax at 25 µM was 82%, the remaining activity at 25 µM stood at 18% and the DC50 amounted to 188 nM.

On to `CC(C)(C)OC(=O)N1C[C@H]2C[C@@H]1CN2Cc1ccc2onc(N3CCC(=O)NC3=O)c2c1` [Example 96, tert-butyl (1R,4R)-5-((3-(2,4-dioxotetrahydropyrimidin-1(2H)-yl)benzo[d]isoxazol-5-yl)methyl)-2,5-diazabicyclo[2.2.1]heptane-2-carboxylate], for which the Dmax at 25 µM was found to be 66%, the remaining activity at 25 µM is 34% and the DC50 is 1090 nM.

On to `CN1C[C@H]2C[C@@H]1CN2Cc1ccc2onc(N3CCC(=O)NC3=O)c2c1` [Example 97], for which the Dmax at 25 µM worked out at 84%, the remaining activity at 25 µM worked out at 16% and the DC50 is 192 nM.

Consider `O=C1CCN(c2noc3ccc(CN4C[C@H]5C[C@@H]4CN5CC4CCOCC4)cc23)C(=O)N1` [Example 98, 1-(5-(((1R,4R)-5-((tetrahydro-2H-pyran-4-yl)methyl)-2,5-diazabicyclo[2.2.1]heptan-2-yl)methyl)benzo[d]isoxazol-3-yl)dihydropyrimidine-2,4(1H,3H)-dione], for which the Dmax at 25 µM was 81%, the remaining activity at 25 µM was 19% and the DC50 is 50 nM.

Turning to `CC(C)(C)OC(=O)N1[C@@H]2CC[C@H]1CN(Cc1ccc3onc(N4CCC(=O)NC4=O)c3c1)C2` [Example 99, tert-butyl (1R,5S)-3-((3-(2,4-dioxotetrahydropyrimidin-1(2H)-yl)benzo[d]isoxazol-5-yl)methyl)-3,8-diazabicyclo[3.2.1]octane-8-carboxylate], the Dmax at 25 µM was found to be 74%, the remaining activity at 25 µM was 26% and the DC50 was found to be 450 nM.

Turning to `O=C1CCN(c2noc3ccc(CN4C[C@H]5CC[C@@H](C4)N5)cc23)C(=O)N1` [Example 100, 1-(5-(((1R,5S)-3,8-diazabicyclo[3.2.1]octan-3-yl)methyl)benzo[d]isoxazol-3-yl)dihydropyrimidine-2,4(1H,3H)-dione], the Dmax at 25 µM was 76%, the remaining activity at 25 µM was 24% and the DC50 was determined as 34 nM.

With `CN1[C@@H]2CC[C@H]1CN(Cc1ccc3onc(N4CCC(=O)NC4=O)c3c1)C2` [Example 101, 1-(5-(((1R,5S)-8-methyl-3,8-diazabicyclo[3.2.1]octan-3-yl)methyl)benzo[d]isoxazol-3-yl)dihydropyrimidine-2,4(1H,3H)-dione], the Dmax at 25 µM was found to be 78%, the remaining activity at 25 µM turned out to be 22% and the DC50 is 13 nM.

In the case of `O=C1CCN(c2noc3ccc(CN4[C@@H]5CC[C@H]4CNC5)cc23)C(=O)N1` [Example 102, 1-(5-(((1R,5S)-3,8-diazabicyclo[3.2.1]octan-8-yl)methyl)benzo[d]isoxazol-3-yl)dihydropyrimidine-2,4(1H,3H)-dione], the Dmax at 25 µM is 80%, the remaining activity at 25 µM is 20% and the DC50 is 462 nM.

Regarding `CN1C[C@H]2CC[C@@H](C1)N2Cc1ccc2onc(N3CCC(=O)NC3=O)c2c1` [Example 103, 1-(5-(((1R,5S)-3-methyl-3,8-diazabicyclo[3.2.1]octan-8-yl)methyl)benzo[d]isoxazol-3-yl)dihydropyrimidine-2,4(1H,3H)-dione], the Dmax at 25 µM is 86%, the remaining activity at 25 µM stood at 14% and the DC50 came to 68 nM.

In the case of `CS(=O)(=O)N1C[C@H]2CC[C@@H](C1)N2Cc1ccc2onc(N3CCC(=O)NC3=O)c2c1` [Example 104, 1-(5-(((1R,5S)-3-(methylsulfonyl)-3,8-diazabicyclo[3.2.1]octan-8-yl)methyl)benzo[d]isoxazol-3-yl)dihydropyrimidine-2,4(1H,3H)-dione], the Dmax at 25 µM is 85%, the remaining activity at 25 µM was determined as 15% and the DC50 turned out to be 181 nM.

In the case of `C[C@H]1CN(S(C)(=O)=O)[C@@H](C)CN1Cc1ccc2onc(N3CCC(=O)NC3=O)c2c1` [Example 105, 1-(5-(((2S,5S)-2,5-dimethyl-4-(methylsulfonyl)piperazin-1-yl)methyl)benzo[d]isoxazol-3-yl)dihydropyrimidine-2,4(1H,3H)-dione], the Dmax at 25 µM is 75%, the remaining activity at 25 µM came to 25% and the DC50 is 373 nM.

As for `C[C@H]1CN(Cc2ccc3onc(N4CCC(=O)NC4=O)c3c2)[C@@H](C)CN1C` [Example 106, 1-(5-(((2S,5S)-2,4,5-trimethylpiperazin-1-yl)methyl)benzo[d]isoxazol-3-yl)dihydropyrimidine-2,4(1H,3H)-dione], the Dmax at 25 µM was 86%, the remaining activity at 25 µM was determined as 14% and the DC50 was determined as 109 nM.

As for `C[C@H]1CN(CC2CCOCC2)[C@@H](C)CN1Cc1ccc2onc(N3CCC(=O)NC3=O)c2c1` [Example 107, 1-(5-(((2S,5S)-2,5-dimethyl-4-((tetrahydro-2H-pyran-4-yl)methyl)piperazin-1-yl)methyl)benzo[d]isoxazol-3-yl)dihydropyrimidine-2,4(1H,3H)-dione], the Dmax at 25 µM is 86%, the remaining activity at 25 µM amounted to 14% and the DC50 stood at 56 nM.

`C[C@@H]1CN(C)C[C@H](C)N1Cc1ccc2onc(N3CCC(=O)NC3=O)c2c1` [Example 108, 1-(5-(((2R,6S)-2,4,6-trimethylpiperazin-1-yl)methyl)benzo[d]isoxazol-3-yl)dihydropyrimidine-2,4(1H,3H)-dione]: the Dmax at 25 µM stood at 69%, the remaining activity at 25 µM came to 31% and the DC50 was 577 nM.

Turning to `C[C@@H]1CN(CC2CCOCC2)C[C@H](C)N1Cc1ccc2onc(N3CCC(=O)NC3=O)c2c1` [Example 109, 1-(5-(((2R,6S)-2,6-dimethyl-4-((tetrahydro-2H-pyran-4-yl)methyl)piperazin-1-yl)methyl)benzo[d]isoxazol-3-yl)dihydropyrimidine-2,4(1H,3H)-dione], the Dmax at 25 µM was determined as 73%, the remaining activity at 25 µM was 27% and the DC50 turned out to be 355 nM.

`O=C1CCN(c2noc3ccc(CN4CCN5CCOC[C@H]5C4)cc23)C(=O)N1` [Example 110, (R)-1-(5-((hexahydropyrazino[2,1-c][1,4]oxazin-8(1H)-yl)methyl)benzo[d]isoxazol-3-yl)dihydropyrimidine-2,4(1H,3H)-dione]: the Dmax at 25 µM amounted to 85%, the remaining activity at 25 µM is 15% and the DC50 amounted to 65 nM.

For `O=C1CCN(c2noc3ccc(CN4CCN5CCOC[C@@H]5C4)cc23)C(=O)N1` [Example 111, (S)-1-(5-((hexahydropyrazino[2,1-c][1,4]oxazin-8(1H)-yl)methyl)benzo[d]isoxazol-3-yl)dihydropyrimidine-2,4(1H,3H)-dione], the Dmax at 25 µM was 85%, the remaining activity at 25 µM worked out at 15% and the DC50 amounted to 61 nM.
